Numbered stars: 1 amine (or outer) side, 2 acyl side, 3 side chain; on linkers, the order of the positions; unused ones are H or OH. Bridge positions count the residues as written; N and C are the ends. Square brackets hold non-standard residues; d marks the D form. Peptide text beside a SMILES is read from it. * marks the point of attachment. DOTA = O=C(O)CN1CCN(CC(=O)O)CCN(CC(=O)*)CCN(CC(=O)O)CC1; TATA = O=C(CC[*:1])N1CN(C(=O)CC[*:2])CN(C(=O)CC[*:3])C1; d(hArg) = N=C(N)NCCCC[C@@H](N)C(=O)O; dHyp = O=C(O)[C@H]1C[C@H](O)CN1; dCba = N[C@H](CC1CCC1)C(=O)O; βAla = NCCC(=O)O; Sar = CNCC(=O)O

For the assay, the target named is T1, Human EphA2 (Homo sapiens, UniProt P29317).
T1 construct: Human EphA2 (residues 27-529) was cloned into pEXPR-IBA44; made in house; host or cells: HEK293 f/s cells
T1 sequence (P29317 27-529): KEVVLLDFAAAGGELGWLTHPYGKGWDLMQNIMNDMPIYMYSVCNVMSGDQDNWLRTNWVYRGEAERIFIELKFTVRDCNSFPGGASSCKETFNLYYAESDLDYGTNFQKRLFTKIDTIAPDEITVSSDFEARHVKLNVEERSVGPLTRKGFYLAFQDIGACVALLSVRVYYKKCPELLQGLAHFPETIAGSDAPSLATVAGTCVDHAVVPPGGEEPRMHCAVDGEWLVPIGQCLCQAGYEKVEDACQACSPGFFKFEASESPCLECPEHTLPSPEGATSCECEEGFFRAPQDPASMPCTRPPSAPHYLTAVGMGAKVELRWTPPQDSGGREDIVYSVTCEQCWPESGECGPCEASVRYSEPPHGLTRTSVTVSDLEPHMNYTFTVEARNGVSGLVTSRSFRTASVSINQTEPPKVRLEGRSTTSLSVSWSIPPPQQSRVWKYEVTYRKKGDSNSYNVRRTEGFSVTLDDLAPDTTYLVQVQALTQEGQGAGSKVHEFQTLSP
The assay can be described thus: SPR binding to human EphA2. The procedure:
Human EphA2 (residues 27-529) was cloned into pEXPR-IBA44 between the 5' NheI and 3' BsaI sites to make constructs expressing a BM40 signal sequence and C-terminal 6xHIS tag. For the expression and purification of the protein, HEK293 f/s cells at 1 x 10^6/mL in freestyle media (Thermo Fisher) were transfected with 1 µg DNA per million cells by PEI either 2:1 or 3:1 PEI:DNA ratio. On day 2 valproic acid was added to a 2.2 mM concentration. The supernatant was harvested 5 days post transfection and loaded on a 1 ml Ni-NTA agarose resin (Thermo Fisher) (wash buffer: 20 mM HEPES pH 7.6, 0.5 M NaCl, 5 mM imidazole, 0.01% Tween-20 buffer; elution buffer: 20 mM HEPES pH 7.6, 0.5 M NaCl, 300 mM imidazole, 0.01% Tween-20). The protein was concentrated to a volume of 2 mL, loaded onto an S-200 Superdex column (GE Healthcare) and eluted with 20 mM HEPES pH 7.6, 150 mM NaCl, 0.01% Tween-20 at a flow rate of 1 mL/min. Fractions were collected and those containing human EphA2 protein were concentrated for further use.
SPR experiments were performed on a Biacore 8K+ (Cytiva Life Sciences, USA) instrument, with methods matched for both human and mouse EphA2 protein. Protein was captured on to a Cytiva NTA sensor chip (Cytiva Life Sciences), via the expressed His-tag; this was followed by primary amine coupling chemistry to covalently immobilize the protein to the chip at 25°C. Initially the surface was injected with 0.5 mM NiCl2 for 2 minutes, followed by activation of the carboxymethyl dextran surface for 7 minutes using an injection of a 1:1 ratio of 0.4 M 1-ethyl-3-(3-dimethylaminopropyl) carbodiimide hydrochloride (EDC)/0.1 M N-hydroxy succinimide (NHS) at a flow rate of 10 µL/min.
Human EphA2 protein was captured to the Ni-NTA surface to a level of 200-300 RU and Mouse EphA2 to 500-800 RU; the residual activated groups were then blocked with a 7 minute injection of 1 M ethanolamine (pH 8.5):HBS-N (1:1). Finally, the Ni-NTA surface was chelated with a 1-minute injection of 350 mM EDTA.
Peptide was prepared in PBS/0.05% Tween 20 with a final DMSO concentration of 0.5%. The top peptide concentration was 100 or 500 nM and 5 further 3-fold dilutions. The peptide was titrated over the chip using single cycle kinetics at 25°C at a flow rate of 75 µL/min with 60 second association and 4000 second dissociation. All data were double referenced for blank injections and reference surface using standard processing procedures. Data was characterized with a 1:1 kinetic binding model to determine kinetic rate constants ka (M^-1s^-1) and kd (s^-1) and equilibrium dissociation constant KD (nM). All data processing was performed using Cytiva Insight Evaluation (Cytiva Life Sciences, USA).

For the compound `CC(C)C[C@H]1NC(=O)[C@H]2CCCN2C(=O)[C@@H](CC(N)=O)NC(=O)[C@@H](C(C)C)NC(=O)[C@@H](CC2CCC2)NC(=O)[C@H]2C[C@H](O)CN2C(=O)[C@H](NC(=O)[C@@H](CC(=O)O)NC(=O)[C@@H](CCCCNC(=N)N)NC(=O)[C@@H](C)NC(=O)CN(C)C(=O)CN(C)C(=O)CN(C)C(=O)CN(C)C(=O)CN(C)C(=O)CN(C)C(=O)CN(C)C(=O)CN(C)C(=O)CN(C)C(=O)CN(C)C(=O)CCNC(=O)CN2CCN(CC(=O)O)CCN(CC(=O)O)CCN(CC(=O)O)CC2)CSCCC(=O)N2CN3CN(C2)C(=O)CCSC[C@@H](NC1=O)C(=O)N[C@H](CC(C)C)C(=O)N[C@H](Cc1c[nH]cn1)C(=O)N1CCC[C@@H]1C(=O)N[C@@H](CC(=O)O)C(=O)N[C@H](Cc1c[nH]c2ccccc12)C(=O)N[C@H](CCCCNC(=N)N)C(=O)N[C@@H](C(N)=O)CSCCC3=O` [BCY26443, [DOTA]-[B-Ala]-[Sar10]-[dAla]-[dHArg]-[dAsp]-[dCys]-[dHyP]-[dCba]-[dVal]-[dAsn]-[dPro]-[dLeu]-[dCys]-[dLeu]-[dHis]-[dPro]-Asp-[dTrp]-[dHArg]-[dCys]-CONH2] ({DOTA-βAla}-[Sar][Sar][Sar][Sar][Sar][Sar][Sar][Sar][Sar][Sar][dA][d(hArg)][dD][dC][dHyp][dCba][dV][dN][dP][dL][dC][dL][dH][dP]D[dW][d(hArg)][dC]-NH2; linker 14-21-28 via TATA), the Kd (human EphA2, read-out: no binding up to (peptide concentration)) was over 5 µM. Besides, the “binding to human EphA2 by SPR” value (in words) is “no binding”.

(Values after paper PMC11373624, “Development and preclinical characterization of a novel radiotheranostic EphA2-targeting bicyclic peptide” (Theranostics, 2024).)
